Patent US4318916A, “Antibiotic PS-5 and derivatives having β-lactamase inhibitory activity and production thereof” (Sanraku-Ocean Co., Ltd., priority 1977, dated 1982)
≈ marks a conversion by molar mass, not a printed value.

How the values were obtained:
Citrobacter freundii E-9 [1] = assay: Potentiation disc assay with cephaloridine (Table 10); type: cell-based; conditions: for Inhibition zone With CER: 50 μg/ml cephaloridine in agar
Experimental: (§1) (A) Ten milliliters of molten nutrient agar containing 50 μg/ml of penicillin G or cephaloridine, 0.8% of Kyokuto Nutrient Broth Powder and 1.0% of Difco Bacto-Agar (pH 7.0) were seeded with the beta-lactam-resistant, beta-lactamase-producing microorganisms indicated in Tables 9 and 10, and poured in a 9-cm Petri dish to provide the bio-assay agar plate. On this assay plate, 8-mm pulp discs containing 25 μl each of antibiotic PS-5 solutions at the indicated concentrations were placed and incubated at 35° C. for 18 hours before reading the inhibition zones. The control assay plate was similarly prepared without penicillin G nor cephaloridine. As reference antibiotics, penicillin G, ampicillin, oxacillin and cefazolin were disc-assayed under the same conditions.

Enterobacter sp. E-18 = assay: as above; type: cell-based; conditions: for Inhibition zone With CER: 50 μg/ml cephaloridine in agar
Experimental: as §1

Serratia marcescens = assay: as above; type: cell-based; conditions: for Inhibition zone With CER: 50 μg/ml cephaloridine in agar
Experimental: as §1

Proteus vulgaris P-5 = assay: Potentiation disc assay of trityl ester (Table 14); type: cell-based; conditions: for Halo of inhibition Cephaloridine added: 50 μg/ml cephaloridine in base agar
Experimental: (§2) (A) Assay Petri dishes (9 cm in diameter) containing resistant microorganisms were prepared by overlaying 10 ml of the molten nutrient agar seeded with beta-lactam-resistant (beta-lactamase-producing) microorganisms, on the solid base layer of nutrient agar (pH 7.0) (15 ml) containing 50 μg/ml of penicillin G or cephaloridine. As described before, the antibiotic solutions to be tested were applied in a 25 μl amount on an 8 mm pulp disc and placed on the said assay dishes. After incubation for 18 hours at 35° C., the inhibition halos were measured and compared with the results on the corresponding assay dished containing neither penicillin G nor cephaloridine. From the data in Table 14, it is very clear that the combination of the tritylation product of antibiotic PS-5 at a concentration below the lower limit of disc assay, with penicillin G or cephaloridine, at a concentration below said limit, produced a significant halo of inhibition. This fact clearly proves the potentiation of the antibiotic activity of penicillin G or cephaloridine with the tritylation product of antibiotic PS-5.

Citrobacter freundii E-9 [2] = assay: Potentiation disc assay of trityl ester (Table 14); type: cell-based; conditions: for Halo of inhibition Cephaloridine added: 50 μg/ml cephaloridine in base agar
Experimental: as §2

Proteus sp. P-22 = assay: Potentiation disc assay of trityl ester (Table 14); type: cell-based; conditions: for Halo of inhibition Cephaloridine added: 50 μg/ml cephaloridine in base agar
Experimental: as §2

[3] = tested on: Enterobacter aerogenes E-19; assay: MIC by broth dilution (Table 13); type: cell-based; conditions: Klebsiella aerogenes, E19, 20 h
Experimental: (§3) The MIC (minimum inhibitory concentration) values of the compound were determined on various pathogenic microorganisms including several resistant strains, utilizing the broth dilution method in BRAIN HEART INFUSION BROTH `Eiken` (EIKEN CHEMICAL CO., LTD.).
(§4) The results were read after incubation at 35° C. for 20 hours. The minimum inhibitory concentration (MIC) values means the lowest concentration unit of the tritylation product of the antibiotic PS-5 was no growth of the corresponding microorganism was observed under the above described conditions. As the control antibiotics,the solutions of ampicillin and cephaloridine were prepared in BRAIN HEART INFUSION BROTH `Eiken` (pH 7.0) at a concentration of 100 μg/ml and treated same as the test compound of the present invention.

[4] = tested on: Enterobacter cloacae E-16; assay: MIC by broth dilution (Table 13); type: cell-based; conditions: E16, 20 h
Experimental: as §3, §4

Serratia marcescens S-18 = assay: MIC by broth dilution (Table 13); type: cell-based; conditions: S18, 20 h
Experimental: as §3, §4

[5] = Solubility of trityl ester of antibiotic PS-5; type: physicochemical
Experimental: The solubility of the tritylation product of the antibiotic PS-5 was determined by dissolving under […] 5 mg each of the tritylation product of the antibiotic PS-5 in 0.1 ml each of the test solvents at 20° C.

[6] = tested on: Comamonas terrigena B-996; assay: Disc bio-assay of antimicrobial activity, cephaloridine equivalent units; type: cell-based; conditions: Comamonas-cephaloridine units per mg of the final purified preparation
Experimental: The overnight culture of Comamonas terrigena B-996 on a nutrient agar slant was suspended in nutrient broth so as to give an optical cell density of 0.040 at 610 nm.
The seed suspension was added in a 1% amount to a molten agar medium containing 0.8% Kyokuto Nutrient Broth Powder (Kyokuto Pharmaceutical Industries Co.) and 1.0% Bacto-Agar (Difco Laboratories). Seven milliliters of the seeded molten agar medium were distributed in a Petri dish (9 cm in diameter) and solidified). This is defined as a Comamonas assay plate.
An 8 mm pulp disc was usually soaked with a sample solution to be assayed, left on a clean sheet of filter paper for a sufficient time to remove the excess solution and then transferred onto an assay plate. After incubation at 35° C. for 20 hours, the diameter of the observed inhibition zone was measured and compared with standard solutions of cephaloridine. The antimicrobial activity of the antibiotic PS-5 and related compounds is expressed as cephaloridine equivalent units/ml.
As well known to those skilled in the art, the assay standard curve varies to some extent, depending on the species of the test microorganisms. […]

[7] = 5 mg in 0.1 ml solvent at 20° C.

SMILES: CCC1C(=O)N2C(C(=O)O)=C(SCCNC(C)=O)CC12 (single isomer, unassigned) [Antibiotic PS-5]
- zone of inhibition at 79.5 µg/mL (Citrobacter freundii E-9 [1]; E9, 18 h, PS-5 79.5 μg/ml, read-out: Inhibition zone Without CER): 16 mm
- zone of inhibition at 100 µg/mL (Citrobacter freundii E-9 [1]; E9, 18 h, PS-5 100 μg/ml, read-out: Inhibition zone Without CER): 17.4 mm
- zone of inhibition at 159 µg/mL (Citrobacter freundii E-9 [1]; E9, 18 h, PS-5 159 μg/ml, read-out: Inhibition zone Without CER): 17.4 mm
- zone of inhibition at 318 µg/mL (Citrobacter freundii E-9 [1]; E9, 18 h, PS-5 318 μg/ml, read-out: Inhibition zone Without CER): 22.5 mm
- Inhibition zone With CER (Citrobacter freundii E-9 [1]; PS-5 79.5 μg/ml): 19.4 mm
- Inhibition zone With CER (Citrobacter freundii E-9 [1]; PS-5 100 μg/ml): 21.6 mm
- Inhibition zone With CER (Citrobacter freundii E-9 [1]; PS-5 159 μg/ml): 22.3 mm
- Inhibition zone With CER (Citrobacter freundii E-9 [1]; PS-5 318 μg/ml): 24.6 mm
- Inhibition zone With CER (Enterobacter sp. E-18; PS-5 79.5 μg/ml): 17.6 mm
- Inhibition zone With CER (Enterobacter sp. E-18; PS-5 100 μg/ml): 18.0 mm
- Inhibition zone With CER (Enterobacter sp. E-18; PS-5 159 μg/ml): 19.4 mm
- Inhibition zone With CER (Enterobacter sp. E-18; PS-5 318 μg/ml): 21.9 mm
- zone of inhibition at 79.5 µg/mL (Enterobacter sp. E-18; SP.E18, 18 h, PS-5 79.5 μg/ml, read-out: Inhibition zone Without CER): 15.1 mm
- zone of inhibition at 100 µg/mL (Enterobacter sp. E-18; SP.E18, 18 h, PS-5 100 μg/ml, read-out: Inhibition zone Without CER): 16.1 mm
- zone of inhibition at 159 µg/mL (Enterobacter sp. E-18; SP.E18, 18 h, PS-5 159 μg/ml, read-out: Inhibition zone Without CER): 18.2 mm
- zone of inhibition at 318 µg/mL (Enterobacter sp. E-18; SP.E18, 18 h, PS-5 318 μg/ml, read-out: Inhibition zone Without CER): 21 mm
- zone of inhibition at 79.5 µg/mL (Serratia marcescens; 18 h, PS-5 79.5 μg/ml, read-out: Inhibition zone Without CER): 14.8 mm
- zone of inhibition at 100 µg/mL (Serratia marcescens; 18 h, PS-5 100 μg/ml, read-out: Inhibition zone Without CER): 16.8 mm
- zone of inhibition at 159 µg/mL (Serratia marcescens; 18 h, PS-5 159 μg/ml, read-out: Inhibition zone Without CER): 17 mm
- zone of inhibition at 318 µg/mL (Serratia marcescens; 18 h, PS-5 318 μg/ml, read-out: Inhibition zone Without CER): 21 mm
- Inhibition zone With CER (Serratia marcescens; PS-5 79.5 μg/ml): 22.3 mm
- Inhibition zone With CER (Serratia marcescens; PS-5 100 μg/ml): 23.3 mm
- Inhibition zone With CER (Serratia marcescens; PS-5 159 μg/ml): 24.8 mm
- Inhibition zone With CER (Serratia marcescens; PS-5 318 μg/ml): 26.1 mm

SMILES: CCC1C(=O)N2C(C(=O)OC(c3ccccc3)(c3ccccc3)c3ccccc3)=C(SCCNC(C)=O)CC12 (single isomer, unassigned) [Trityl PS-5]
- zone of inhibition at 42 µg/mL (Proteus vulgaris P-5; P5, 18 h, Trityl PS-5 42 μg/ml, penicillin G series, read-out: Halo of inhibition Control): 0 mm
- zone of inhibition at 50 µg/mL (Proteus vulgaris P-5; P5, 18 h, Trityl PS-5 50 μg/ml, cephaloridine series, read-out: Halo of inhibition Control): 0 mm
- zone of inhibition at 100 µg/mL (Proteus vulgaris P-5; P5, 18 h, Trityl PS-5 100 μg/ml, cephaloridine series, read-out: Halo of inhibition Control): 11 mm
- Halo of inhibition Penicillin G added (Proteus vulgaris P-5; Trityl PS-5 42 μg/ml, 50 μg/ml penicillin G in base agar): 27.0 mm
- Halo of inhibition Cephaloridine added (Proteus vulgaris P-5; Trityl PS-5 50 μg/ml): 15.0 mm
- Halo of inhibition Cephaloridine added (Proteus vulgaris P-5; Trityl PS-5 100 μg/ml): 18.0 mm
- zone of inhibition at 50 µg/mL (Citrobacter freundii E-9 [2]; E9, 18 h, Trityl PS-5 50 μg/ml, read-out: Halo of inhibition Control): 13 mm
- zone of inhibition at 100 µg/mL (Citrobacter freundii E-9 [2]; E9, 18 h, Trityl PS-5 100 μg/ml, read-out: Halo of inhibition Control): 16 mm
- Halo of inhibition Cephaloridine added (Citrobacter freundii E-9 [2]; Trityl PS-5 50 μg/ml): 15.5 mm
- Halo of inhibition Cephaloridine added (Citrobacter freundii E-9 [2]; Trityl PS-5 100 μg/ml): 18.0 mm
- zone of inhibition at 50 µg/mL (Proteus sp. P-22; 18 h, Trityl PS-5 50 μg/ml, read-out: Halo of inhibition Control): 0 mm
- zone of inhibition at 100 µg/mL (Proteus sp. P-22; 18 h, Trityl PS-5 100 μg/ml, read-out: Halo of inhibition Control): 0 mm
- Halo of inhibition Cephaloridine added (Proteus sp. P-22; Trityl PS-5 50 μg/ml): 11.5 mm
- Halo of inhibition Cephaloridine added (Proteus sp. P-22; Trityl PS-5 100 μg/ml): 13.5 mm
- MIC [3]: 8.7 µg/mL (≈ 16.1 µM)
- MIC [4]: 10 µg/mL (≈ 18.5 µM)
- MIC (Serratia marcescens S-18): 10 µg/mL (≈ 18.5 µM)
- Solubility in benzene, ethyl acetate, chloroform, methanol, ethanol, acetone, DMF and DMSO [5, 7]: Highly soluble
- Solubility in water, n-hexane and petroleum ether [5, 7]: Substantially insoluble
- Solubility in benzene, ethyl acetate, chloroform, acetone and dimethyl sulfoxide ([5]; general description): soluble
- Solubility in water, hexane and petroleum ether ([5]; general description): substantially insoluble
- Specific activity [6]: 10,800 CCU/mg
